Measurements as given in ChEMBL document CHEMBL2074258 (Drug Metab Dispos, 2005).
One block for each molecule: values may come before it.

How the values were obtained:
[1] = target: T1, Solute carrier family 22 member 2 (Rattus norvegicus, UniProt Q9R0W2); test: TP_TRANSPORTER: inhibition pramipexole uptake in rOCT2-injected oocytes; format: functional, cell-based, Oocyte
T1 sequence (Q9R0W2 whole entry): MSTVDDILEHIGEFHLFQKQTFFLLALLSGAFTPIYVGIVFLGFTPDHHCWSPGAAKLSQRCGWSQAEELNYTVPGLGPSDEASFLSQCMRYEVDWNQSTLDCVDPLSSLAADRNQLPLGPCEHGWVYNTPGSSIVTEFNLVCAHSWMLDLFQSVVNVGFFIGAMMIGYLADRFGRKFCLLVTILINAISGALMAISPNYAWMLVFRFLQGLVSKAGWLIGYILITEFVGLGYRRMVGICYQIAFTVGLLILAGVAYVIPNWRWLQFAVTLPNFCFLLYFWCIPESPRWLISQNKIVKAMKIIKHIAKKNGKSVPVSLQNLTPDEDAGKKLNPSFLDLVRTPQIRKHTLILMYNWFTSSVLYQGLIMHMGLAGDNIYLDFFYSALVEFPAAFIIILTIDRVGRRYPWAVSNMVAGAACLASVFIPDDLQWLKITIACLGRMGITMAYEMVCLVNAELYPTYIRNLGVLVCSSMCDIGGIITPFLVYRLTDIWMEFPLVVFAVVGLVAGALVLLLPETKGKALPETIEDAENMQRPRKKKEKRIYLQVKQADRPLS

[2] = target: T2, Solute carrier family 22 member 1 (Rattus norvegicus, UniProt Q63089); test: TP_TRANSPORTER: inhibition pramipexole uptake in rOCT1-injected oocytes; format: functional, cell-based, Oocyte
T2 sequence (Q63089 whole entry): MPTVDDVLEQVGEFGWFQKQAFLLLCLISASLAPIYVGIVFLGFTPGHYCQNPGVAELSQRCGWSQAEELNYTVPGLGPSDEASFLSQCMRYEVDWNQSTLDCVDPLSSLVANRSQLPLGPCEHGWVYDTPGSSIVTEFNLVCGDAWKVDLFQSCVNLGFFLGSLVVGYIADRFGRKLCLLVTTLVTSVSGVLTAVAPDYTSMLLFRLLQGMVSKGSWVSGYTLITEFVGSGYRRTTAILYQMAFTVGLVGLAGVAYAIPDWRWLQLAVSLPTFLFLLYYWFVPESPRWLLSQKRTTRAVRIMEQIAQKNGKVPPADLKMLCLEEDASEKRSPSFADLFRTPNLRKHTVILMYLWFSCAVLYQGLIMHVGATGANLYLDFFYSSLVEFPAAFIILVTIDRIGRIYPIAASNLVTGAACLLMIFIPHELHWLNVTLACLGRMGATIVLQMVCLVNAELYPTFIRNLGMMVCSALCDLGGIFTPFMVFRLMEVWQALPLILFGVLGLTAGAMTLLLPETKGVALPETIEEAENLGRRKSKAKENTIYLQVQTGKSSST

[3] = target: T1, Solute carrier family 22 member 2; test: TP_TRANSPORTER: uptake in Xenopus laevis oocytes; settings: Xenopus laevis oocytes expressing the transporter
[4] = substrate: CCCN[C@H]1CCc2nc(N)sc2C1; test: cells, lysate or membranes named

Molecule: NC12CC3CC(CC(C3)C1)C2 [AMANTADINE]
IC50 [1]: 271 µM
IC50 [2]: 76.3 µM

B1: Solute carrier family 22 member 2 (Rattus norvegicus) (protein)
chain: T1 sequence (Q9R0W2 whole entry)
Km [4]: 17 µM

The next lines start with the values.

IC50 [1]: 10.7 µM
IC50 [2]: 164 µM
Molecule: C[C@]12C[C@H](O)[C@H]3[C@@H](CCC4=CC(=O)CC[C@@]43C)[C@@H]1CC[C@@H]2C(=O)CO [CORTICOSTERONE]

Km [3]: 17 µM
Molecule: CCCN[C@H]1CCc2nc(N)sc2C1 [PRAMIPEXOLE]

IC50 [1]: 167 µM
Molecule: CCN(CC)CCNC(=O)c1ccc(N)cc1 [PROCAINAMIDE]
